Reference: PubChem BioAssay (NCI)
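Five compound concentrations were applied to cells in 96-well plates for 48 hours; endpoints were derived by simple linear interpolation of the resulting dose-response curve. GI50 marks 50% less growth. TGI: concentration producing complete growth inhibition.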

Assays:
Assay in all cases: growth of human tumour cells (NCI), 48 h
IGROV1 ovarian = test system: IGROV1 ovarian
CAKI-1 renal = test system: CAKI-1 renal
COLO 205 colon = test system: COLO 205 colon
HCT-15 colon = test system: HCT-15 colon
MDA-MB-435 = test system: MDA-MB-435
NCI-H226 lung = test system: NCI-H226 lung
SF-295 CNS = test system: SF-295 CNS
RXF 393 renal = test system: RXF 393 renal
HT29 colon = test system: HT29 colon
SK-MEL-5 melanoma = test system: SK-MEL-5 melanoma
U251 CNS = test system: U251 CNS
NCI-H23 lung = test system: NCI-H23 lung
HOP-62 NSCLC = test system: HOP-62 NSCLC
K-562 leukemia = test system: K-562 leukemia
MOLT-4 leukemia = test system: MOLT-4 leukemia
LOX IMVI melanoma = test system: LOX IMVI melanoma
MCF7 breast = test system: MCF7 breast
SK-MEL-28 melanoma = test system: SK-MEL-28 melanoma
DU-145 prostate = test system: DU-145 prostate
SW-620 colon = test system: SW-620 colon
OVCAR-4 ovarian = test system: OVCAR-4 ovarian
TK-10 renal = test system: TK-10 renal
NCI-H460 lung = test system: NCI-H460 lung
CCRF-CEM leukemia = test system: CCRF-CEM leukemia
ACHN renal = test system: ACHN renal
BT-549 breast = test system: BT-549 breast
HS 578T breast = test system: HS 578T breast
OVCAR-3 ovarian = test system: OVCAR-3 ovarian
HOP-92 NSCLC = test system: HOP-92 NSCLC
SNB-75 CNS = test system: SNB-75 CNS
OVCAR-5 ovarian = test system: OVCAR-5 ovarian
UACC-62 melanoma = test system: UACC-62 melanoma
SNB-19 CNS = test system: SNB-19 CNS
SF-539 CNS = test system: SF-539 CNS
SN12C renal = test system: SN12C renal
M14 melanoma = test system: M14 melanoma
NCI/ADR-RES ovarian = test system: NCI/ADR-RES ovarian
HL-60(TB) leukemia = test system: HL-60(TB) leukemia
SK-MEL-2 melanoma = test system: SK-MEL-2 melanoma
PC-3 prostate = test system: PC-3 prostate
HCC-2998 colon = test system: HCC-2998 colon
786-0 renal = test system: 786-0 renal
UO-31 renal = test system: UO-31 renal
OVCAR-8 ovarian = test system: OVCAR-8 ovarian
SF-268 CNS = test system: SF-268 CNS
T-47D breast = test system: T-47D breast
UACC-257 melanoma = test system: UACC-257 melanoma
EKVX NSCLC = test system: EKVX NSCLC
NCI-H522 lung = test system: NCI-H522 lung
MDA-MB-468 breast = test system: MDA-MB-468 breast
SK-OV-3 ovarian = test system: SK-OV-3 ovarian
RPMI-8226 leukemia = test system: RPMI-8226 leukemia
MDA-MB-231 breast = test system: MDA-MB-231 breast
KM12 colon = test system: KM12 colon
MALME-3M melanoma = test system: MALME-3M melanoma
HCT-116 colon = test system: HCT-116 colon
A549 NSCLC = test system: A549 NSCLC

CN(C)c1nc(NCCNS(=O)(=O)c2ccc(C3=Nc4c(N)nc(N)nc4NC(c4ccccc4)C3)cc2)nc(Nc2ccc(F)cc2)n1 (centres undefined)
GI50 (IGROV1 ovarian): 5.76 µM
TGI (IGROV1 ovarian): > 100 µM
GI50 (CAKI-1 renal): 9.73 µM
TGI (CAKI-1 renal): > 100 µM
GI50 (COLO 205 colon): 16.4 µM
TGI (COLO 205 colon): > 100 µM
GI50 (HCT-15 colon): > 100 µM
TGI (HCT-15 colon): > 100 µM
GI50 (MDA-MB-435): 15 µM
TGI (MDA-MB-435): > 100 µM
GI50 (NCI-H226 lung): > 100 µM
TGI (NCI-H226 lung): > 100 µM
GI50 (SF-295 CNS): 9.5 µM
TGI (SF-295 CNS): > 100 µM
GI50 (RXF 393 renal): 2.55 µM
TGI (RXF 393 renal): 8.95 µM
GI50 (HT29 colon): 5.32 µM
TGI (HT29 colon): > 100 µM
GI50 (SK-MEL-5 melanoma): 5.81 µM
TGI (SK-MEL-5 melanoma): 20.5 µM
GI50 (U251 CNS): 18.4 µM
TGI (U251 CNS): > 100 µM
GI50 (NCI-H23 lung): > 100 µM
TGI (NCI-H23 lung): > 100 µM
GI50 (HOP-62 NSCLC): 99.7 µM
TGI (HOP-62 NSCLC): > 100 µM
GI50 (K-562 leukemia): 4.33 µM
TGI (K-562 leukemia): > 100 µM
GI50 (MOLT-4 leukemia): 3.11 µM
TGI (MOLT-4 leukemia): > 100 µM
GI50 (LOX IMVI melanoma): 9.96 µM
TGI (LOX IMVI melanoma): 25.7 µM
GI50 (MCF7 breast): 3.85 µM
TGI (MCF7 breast): 85.5 µM
GI50 (SK-MEL-28 melanoma): > 100 µM
TGI (SK-MEL-28 melanoma): > 100 µM
GI50 (DU-145 prostate): > 100 µM
TGI (DU-145 prostate): > 100 µM
GI50 (SW-620 colon): 40.4 µM
TGI (SW-620 colon): > 100 µM
GI50 (OVCAR-4 ovarian): 74.6 µM
TGI (OVCAR-4 ovarian): > 100 µM
GI50 (TK-10 renal): > 100 µM
TGI (TK-10 renal): > 100 µM
GI50 (NCI-H460 lung): 6.49 µM
TGI (NCI-H460 lung): > 100 µM
GI50 (CCRF-CEM leukemia): 4.02 µM
TGI (CCRF-CEM leukemia): > 100 µM
GI50 (ACHN renal): > 100 µM
TGI (ACHN renal): > 100 µM
GI50 (BT-549 breast): 8.82 µM
TGI (BT-549 breast): > 100 µM
GI50 (HS 578T breast): 6.43 µM
TGI (HS 578T breast): > 100 µM
GI50 (OVCAR-3 ovarian): 69.3 µM
TGI (OVCAR-3 ovarian): > 100 µM
GI50 (HOP-92 NSCLC): 2.18 µM
TGI (HOP-92 NSCLC): 9.96 µM
GI50 (SNB-75 CNS): 3.58 µM
TGI (SNB-75 CNS): > 100 µM
GI50 (OVCAR-5 ovarian): > 100 µM
TGI (OVCAR-5 ovarian): > 100 µM
GI50 (UACC-62 melanoma): 31.5 µM
TGI (UACC-62 melanoma): > 100 µM
GI50 (SNB-19 CNS): 21.8 µM
TGI (SNB-19 CNS): > 100 µM
GI50 (SF-539 CNS): 12 µM
TGI (SF-539 CNS): 63.8 µM
GI50 (SN12C renal): 7.83 µM
TGI (SN12C renal): > 100 µM
GI50 (M14 melanoma): 24.4 µM
TGI (M14 melanoma): > 100 µM
GI50 (NCI/ADR-RES ovarian): > 100 µM
TGI (NCI/ADR-RES ovarian): > 100 µM
GI50 (HL-60(TB) leukemia): 4.24 µM
TGI (HL-60(TB) leukemia): > 100 µM
GI50 (SK-MEL-2 melanoma): 28.5 µM
TGI (SK-MEL-2 melanoma): > 100 µM
GI50 (PC-3 prostate): 3.84 µM
TGI (PC-3 prostate): > 100 µM
GI50 (HCC-2998 colon): 11.7 µM
TGI (HCC-2998 colon): > 100 µM
GI50 (786-0 renal): 7.88 µM
TGI (786-0 renal): > 100 µM
GI50 (UO-31 renal): > 100 µM
TGI (UO-31 renal): > 100 µM
GI50 (OVCAR-8 ovarian): 61.4 µM
TGI (OVCAR-8 ovarian): > 100 µM
GI50 (SF-268 CNS): 9.85 µM
TGI (SF-268 CNS): > 100 µM
GI50 (T-47D breast): 5.12 µM
TGI (T-47D breast): > 100 µM
GI50 (UACC-257 melanoma): 87.2 µM
TGI (UACC-257 melanoma): > 100 µM
GI50 (EKVX NSCLC): 6.65 µM
TGI (EKVX NSCLC): > 100 µM
GI50 (NCI-H522 lung): 77.4 µM
TGI (NCI-H522 lung): > 100 µM
GI50 (MDA-MB-468 breast): 3.37 µM
TGI (MDA-MB-468 breast): 13.7 µM
GI50 (SK-OV-3 ovarian): > 100 µM
TGI (SK-OV-3 ovarian): > 100 µM
GI50 (RPMI-8226 leukemia): 3.32 µM
TGI (RPMI-8226 leukemia): > 100 µM
GI50 (MDA-MB-231 breast): 6.16 µM
TGI (MDA-MB-231 breast): 67.5 µM
GI50 (KM12 colon): 8.8 µM
TGI (KM12 colon): > 100 µM
GI50 (MALME-3M melanoma): 7.34 µM
TGI (MALME-3M melanoma): > 100 µM
GI50 (HCT-116 colon): 7.37 µM
TGI (HCT-116 colon): > 100 µM
GI50 (A549 NSCLC): > 100 µM
TGI (A549 NSCLC): > 100 µM
